This is an account of results in the supplement of paper PMC12613149.

Data set [1] can be described thus: collision cross section (TIMS, N2 drift gas) of the primary ion; higher = larger gas-phase ion size.
Data set [2] can be described thus: reversed-phase LC retention time (C18, 15 min MeOH gradient); higher = more hydrophobic / later elution.
Where [3] appears, read: ionization mode: ESI+, ion species: [M+H]+.
Where [4] appears, read: ionization mode: ESI-, ion species: [M-H]-.

The structures appear in SMILES notation.

In data set [1] (setting [3]), `CCOC(=O)c1cn2nc(OP(=S)(OCC)OCC)cc2nc1C` [Pyrazophos] registered a collision cross section of 187.33 Å². Further, the “reversed-phase LC retention time” value in data set [2] (setting [3]) amounted to 15.8 min.
Regarding `CC(C)C(=O)OCC(C)(C)C(OC(=O)C(C)C)C(C)C` (stereo not drawn) [2,2,4-Trimethyl-1,3-pentanediol diisobutyrate], the collision cross section in data set [1] (setting [3]) stood at 172.79 Å². Besides, the “reversed-phase LC retention time” value in data set [2] (setting [3]) was determined as 17 min.
Take `CN(C(=O)CO)c1c(I)c(C(=O)NCC(O)CO)c(I)c(C(=O)NCC(O)CO)c1I` (stereo not drawn) [Iomeprol]: the collision cross section in data set [1] (setting [3]) turned out to be 216.41 Å²; in data set [1] (setting [4]) it was 210.1 Å². Also, the “reversed-phase LC retention time” value amounted to 5.52 min in data set [2] (setting [3]) and 5.58 min in data set [2] (setting [4]).
With `N#Cc1nn(-c2c(Cl)cc(C(F)(F)F)cc2Cl)c(N)c1SC(F)(F)F` [Fipronil sulfide], the collision cross section in data set [1] (setting [4]) is 173.94 Å². The “reversed-phase LC retention time” value in data set [2] (setting [4]) is 15.8 min.
The compound `Oc1cc(Cl)ccc1Oc1ccc(Cl)cc1Cl` [Triclosan] came in with a collision cross section in data set [1] (setting [4]) of 158.5 Å². Besides, the “reversed-phase LC retention time” value in data set [2] (setting [4]) was found to be 16.8 min.
Turning to `CNC(=O)Oc1cccc2c1OC(C)(C)C2` [Carbofuran], the collision cross section in data set [1] (setting [3]) worked out at 147.19 Å². In addition, the “reversed-phase LC retention time” value in data set [2] (setting [3]) was 11.7 min.
Take `Oc1ccc(C(c2ccc(O)cc2)(C(F)(F)F)C(F)(F)F)cc1` [Bisphenol AF]: in data set [1] (setting [4]), the collision cross section worked out at 165.55 Å². Further, the “reversed-phase LC retention time” value in data set [2] (setting [4]) was 14.8 min.
In data set [1] (setting [3]), `CCCCCCCCCCCOC(=O)c1ccccc1C(=O)OCCCCCCCCCCC` [Diundecylphthalate] yielded a collision cross section of 241.8 Å². For the same compound, the “reversed-phase LC retention time” value in data set [2] (setting [3]) is 20.8 min.
With `CN(C)C(=O)Nc1ccc(Cl)c(Cl)c1` [1-(3,4-Dichlorophenyl)-3,3-dimethylurea], the collision cross section in data set [1] (setting [3]) was 149.81 Å²; in data set [1] (setting [4]) it was 146.03 Å². Moreover, the “reversed-phase LC retention time” value in data set [2] (setting [3]) is 13 min; in data set [2] (setting [4]) it was 13.2 min.
`CCCCCCCCCCCCN(C)C` [N,N-Dimethyldodecylamine]: the collision cross section in data set [1] (setting [3]) was determined as 169.68 Å². In addition, the “reversed-phase LC retention time” value in data set [2] (setting [3]) came to 15.4 min.
As for `CC(C)NCC(O)COc1cccc2[nH]ccc12` (stereo not drawn) [Pindolol], the collision cross section in data set [1] (setting [3]) is given as 159 Å². In addition, the “reversed-phase LC retention time” value in data set [2] (setting [3]) was determined as 7.36 min.
`CCN(CC)CC(=O)Nc1c(C)cccc1C` [Lidocaine] yielded a collision cross section in data set [1] (setting [3]) of 156.14 Å². In data set [2] (setting [3]), the “reversed-phase LC retention time” value was 8.29 min.
For the compound `CC(C)NCC(O)c1ccc(NS(C)(=O)=O)cc1` (stereo not drawn) [Sotalol], the results for the collision cross section in data set [1] (setting [3]) and in data set [1] (setting [4]) were 166.72 Å² and 170.22 Å², respectively. Moreover, the “reversed-phase LC retention time” value in data set [2] (setting [3]) was 5.7 min; in data set [2] (setting [4]), 7.58 min.
`Nc1ccc(Sc2ccc(N)cc2)cc1` [4,4'-Thiodianiline] had a collision cross section in data set [1] (setting [3]) of 164.43 Å². The “reversed-phase LC retention time” value in data set [2] (setting [3]) is 9.19 min.
Compound `CC(C)CCCCCCOC(=O)C1CCCCC1C(=O)OCCCCCCC(C)C` (stereo not drawn) [DINCH] yielded a collision cross section in data set [1] (setting [3]) of 228.01 Å². Also, the “reversed-phase LC retention time” value in data set [2] (setting [3]) came out at 20.1 min.
As for `Nc1ccc(Oc2ccc(Cl)cc2Cl)cc1C(=O)O` [Aminobifenox acid], the collision cross section was found to be 173.06 Å² in data set [1] (setting [3]) and 169.52 Å² in data set [1] (setting [4]). The results for the “reversed-phase LC retention time” value in data set [2] (setting [3]) and in data set [2] (setting [4]) were 15.4 min and 13.2 min, respectively.
The compound `CC(C)(C)c1cc([N+](=O)[O-])cc([N+](=O)[O-])c1O` [Dinoterb] showed a collision cross section in data set [1] (setting [4]) of 149.2 Å². For the same compound, the “reversed-phase LC retention time” value in data set [2] (setting [4]) stood at 12.5 min.
Regarding `COc1ccc2c3c1O[C@H]1C[C@@H](O)C=C[C@@]31CCN(C)C2` [Galantamine], the collision cross section in data set [1] (setting [3]) is given as 169.25 Å². Further, in data set [2] (setting [3]), the “reversed-phase LC retention time” value was found to be 5.92 min.
In data set [1] (setting [3]), `CC(CCl)OP(=O)(OC(C)CCl)OC(C)CCl` (stereo not drawn) [Tris(1-chloro-2-propyl)phosphate] showed a collision cross section of 162.58 Å². For the same compound, in data set [2] (setting [3]), the “reversed-phase LC retention time” value worked out at 14.3 min.
Compound `CC12CC3CC(C)(C1)CC(N)(C3)C2` [Memantine] displayed a collision cross section in data set [1] (setting [3]) of 144.78 Å². For the same compound, the “reversed-phase LC retention time” value in data set [2] (setting [3]) turned out to be 11.7 min.
As to `CC(C)CC(C)CC(C)c1ccc(O)cc1` (stereo not drawn) [Nonylphenol_isomers], in data set [1] (setting [4]), the collision cross section was found to be 161.38 Å². In addition, the “reversed-phase LC retention time” value in data set [2] (setting [4]) was found to be 17.9 min.
`CN(C/C=C/C#CC(C)(C)C)Cc1cccc2ccccc12` [Terbinafine]: the collision cross section in data set [1] (setting [3]) was 187.34 Å². For the same compound, the “reversed-phase LC retention time” value in data set [2] (setting [3]) turned out to be 13.8 min.
For `CCc1ccc(CCOc2ccc(CC3SC(=O)NC3=O)cc2)nc1` (stereo not drawn) [Pioglitazone], the collision cross section in data set [1] (setting [3]) stood at 179.07 Å²; in data set [1] (setting [4]), 176.43 Å². Further, the entries for the “reversed-phase LC retention time” value in data set [2] (setting [3]) and in data set [2] (setting [4]) were 11.1 min and 13.3 min, respectively.
As to `O=C(Nc1ccc(F)cc1F)c1cccnc1Oc1cccc(C(F)(F)F)c1` [Diflufenican], the values for the collision cross section in data set [1] (setting [3]) and in data set [1] (setting [4]) were 189.49 Å² and 181.03 Å², respectively. Further, the “reversed-phase LC retention time” value in data set [2] (setting [3]) amounted to 16.2 min; in data set [2] (setting [4]), 16.7 min.
In data set [1] (setting [4]), `O=S(=O)(O)c1cccc2c(O)cccc12` [5-Hydroxy-1-naphthalenesulfonic acid] gave a collision cross section of 143.15 Å². Moreover, the “reversed-phase LC retention time” value in data set [2] (setting [4]) is 2.41 min.
For the compound `Cc1c(N)c(=O)n(-c2ccccc2)n1C` [4-Aminoantipyrine], the collision cross section in data set [1] (setting [3]) was 142.4 Å². Also, the “reversed-phase LC retention time” value in data set [2] (setting [3]) amounted to 7.19 min.
With `O=C(O)c1ccc(-c2ccccc2-c2nnn[nH]2)cc1` [Valsartan acid], the values for the collision cross section in data set [1] (setting [3]) and in data set [1] (setting [4]) were 161.62 Å² and 162.3 Å², respectively. Moreover, the “reversed-phase LC retention time” value was 11.2 min in data set [2] (setting [3]) and 6.27 min in data set [2] (setting [4]).
